# In publication PMC12428582, “2-Styrylquinolines with Push-Pull Architectures as Sensors for β-Amyloid Aggregation with Theranostic Properties” (International Journal of Molecular Sciences, 2025):
# Read-outs that look alike come from different tables or passages of the source.
# Tests used:
# [1] = target: T1, fibrils of β-amyloid peptide (human Aβ1–42) (Homo sapiens, UniProt P05067); test: Fluorescence titration of sensors with β-amyloid fibrils (Kd by non-linear fitting); format: binding; conditions: for Kd: fibrils of β-amyloid peptide, sensor 1.0 × 10^−6 M, protein 0 to 2.0 × 10^−6 M, ICT band excitation/emission maxima, read-out: Binding constants values (Kd) and standard deviations
# T1 construct: amyloid β protein fragment 1–42 (MW = 4514.04); purchased Merck-Sigma-Aldrich
# T1 sequence (P05067 672-713 limits assumed): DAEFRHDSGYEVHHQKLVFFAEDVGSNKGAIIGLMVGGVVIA
# Protocol: Amyloid fibrils from human Aβ1–42 peptide were prepared using a procedure that combines several protocols described in the literature. A 2.2 × 10^−4 M solution of commercially available Aβ1–42 peptide was prepared in a small volume of 100 mM sodium phosphate buffer (pH = 7.04) containing EDTA in concentration 10 mM. This solution was incubated at 37 °C during 72 h in a dry bath supported on an orbital shaker working at 200 rpm. […] Subsequently, 10 μL of the freshly prepared amyloid beta fibrils (c = 1.0 × 10^−4 M) were added to each of the solutions containing the sensors. After a stabilization period of 10 min after each fibril addition at 37 °C, and then equilibration time of 5 min at room temperature, fluorescence emission spectra were recorded for each sensor at their excitation maxima.
# amyloid-beta plaques [2] = target: T2, amyloid-beta plaques (Homo sapiens, UniProt P05067); test: Ex vivo staining of somatosensory cortex of APP/PS1 transgenic mice (confocal microscopy); conditions: plaques most distinctly labeled at 458 nm excitation, also 488 and 555 nm, none at 594 or 405 nm
# T2 sequence (P05067 672-711 limits assumed): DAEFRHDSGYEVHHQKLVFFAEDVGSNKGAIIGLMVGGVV
# Source text: Compound 6b was chosen for an initial labeling study by assessing its binding properties in the somatosensory cortex of APP/PS1 transgenic mice, a model of Alzheimer’s disease that develops amyloid-beta deposits in the brain from 6 to 7 months of age. […] Amyloid-beta plaques were most distinctly labeled at an excitation wavelength of 458 nm, with effective staining also being observed at 488 nm and 555 nm (Figure 8A–D). In contrast, no staining was detected when exciting at 594 nm or 405 nm (Figure 8E,F).
# The free-floating sections were rinsed in 0.1 M phosphate buffer (PB) and incubated for 2 h at room temperature with a 20 μM solution of each compound 6, prepared by diluting a 1.0 × 10^−4 M stock solution in DMSO with phosphate buffer. After incubation, the sections were rinsed again in 0.1 M phosphate buffer, mounted using ProLong Gold Antifade Reagent (Invitrogen Corporation, Carlsbad, CA, USA), and stored at −20 °C.
# (§1) Image acquisition was performed with a Zeiss LSM 710 confocal laser scanning system (Carl Zeiss Microscopy GmbH, Jena, Germany). They were recorded at 0.5 μm intervals (63 × objective) through separate channels, and ZEN 2012 software (Zeiss) was then used to construct composite images from each optical series by combining the images recorded through the different channels (image resolution 1024 × 1024 pixels; pixel size 188 nm). […]
# [3] = target: T3, neurofibrillary tangles (phosphorylated tau) (Homo sapiens, UniProt P10636); test: Ex vivo staining of temporal neocortex of an Alzheimer's disease patient, AT8 antibody co-labelling; conditions: temporal neocortex of an AD patient; AT8 antibody detects phosphorylated tau
# T3 sequence (P10636 623-758 limits assumed): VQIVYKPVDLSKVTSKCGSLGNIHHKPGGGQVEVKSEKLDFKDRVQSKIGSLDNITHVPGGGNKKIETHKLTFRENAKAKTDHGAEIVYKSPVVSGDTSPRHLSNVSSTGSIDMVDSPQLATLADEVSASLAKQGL
# Protocol: (§2) AD human tissue samples were analyzed within the context of a previous study that utilized fixed coronal sections to investigate the progression of Alzheimer’s disease. Brain tissue samples from AD patients were obtained from the Banco de Tejidos Fundación CIEN (Dr. A. Rábano, Área de Neuropatología, Centro Alzheimer, Fundación Reina Sofía, Madrid, Spain). Immediately after removal, the brains were fixed in cold 4% paraformaldehyde in 0.1 M phosphate buffer (pH 7.4). After 2 h, the tissue was sectioned into small blocks and post-fixed in the same medium at 4 °C for 24–48 h. Serial coronal sections (50 μm thick) were prepared using a vibratome (St. Louis, MO, USA), cryoprotected in a 30% sucrose solution in 0.1 M phosphate buffer and stored in an ethylene glycol/glycerol solution at −20 °C until use. […]
# as §1
# [4] = tested on: caspase-3 activity in HEK293-Tau3R cells; test: Caspase-3 activity in cells treated with okadaic acid (Ac-DEVD-AMC substrate); format: cell-based, human; conditions: for Caspase-3 activation induced by okadaic acid: 25 nM okadaic acid with compound at 10 or 100 nM; for Decrease of caspase-3 activity compared to cells treated with okadaic acid alone: 100 nM compound, 25 nM okadaic acid, p < 0.05
# Protocol: HEK293-Tau3R cells in logarithmic growth phase were digested with trypsin at a concentration of 0.25% and then resuspended in the medium and subcultured in Petri dishes (100 × 15 mm) at a seeding density of 1.5 × 10^5 cells/mL. […] Upon completion of the treatment, cells were collected, washed twice with PBS (pH 7.4) and pelleted by centrifugation at 1000× g for 5 min. The pellet was then resuspended in PBS and centrifuged again at 1000× g for 10 min at 4 °C to remove the supernatant. The resulting cell pellets were lysed in a buffer containing 10 mM Tris–HCl (pH 7.5) with 0.5% CHAPS, 1 mM MgCl2, 1 mM EGTA, 1 mM EDTA, 10% glycerol, 5 mM β-mercaptoethanol, 1 mM DTT, 1 mM phenylmethylsulfonyl fluoride (PMSF), 100 μM leupeptin and 1 μM pepstatin. Following a 30 min incubation on ice, the lysates were clarified by centrifugation at 13,000× g for 5 min. Protein concentrations in the supernatants were determined using the bicinchoninic acid (BCA) assay.
# The caspase 3 activity assay performed using the known fluorogenic substrate Ac-DEVD-AMC. HEK293-Tau3R cells were harvested, washed with ice-cold PBS and lysed in 100 μL of lysis buffer containing 50 mM HEPES (pH 7.4), 100 mM NaCl, 0.1% CHAPS, 10% glycerol, 10 mM DTT, 0.1 mM EDTA and protease inhibitors (1 μg/μL each of leupeptin, pepstatin and aprotinin). The lysates were, sonicated and centrifuged at 14,000× g for 15 min at 4 °C. For the assay, 20 μg of cellular protein from the lysates were incubated with 20 µM caspase 3 substrate in assay buffer (50 mM HEPES, pH 7.4, 100 mM NaCl, 0.1% CHAPS, 10% glycerol, 10 mM DTT) for 2 h at 37 °C. Substrate cleavage was monitored using a microplate fluorescence reader with excitation at 360 nm and emission at 460 nm. Caspase activity was determined based on the cleavage of the fluorogenic substrate and is expressed as fluorescence arbitrary units.
# amyloid-beta plaques [5] = target: T2, amyloid-beta plaques; test: Ex vivo staining of temporal neocortex of an Alzheimer's disease patient, amyloid-beta antibody co-labelling; conditions: temporal neocortex of an AD patient; 20 μM compound, 2 h
# Protocol: as §2, §1
# [6] = target: T4, AcPHF6 (Ac-VQIVYK-NH2) tau-hexapeptide (Homo sapiens, UniProt P10636); test: AcPHF6 aggregation inhibition, Thioflavin T fluorescence; format: biochemical; conditions: 1 μM, non-toxic concentration; Figure 12
# T4 construct: purchased Bachem (Bubendorf BL, Switzerland)
# Protocol: This in vitro assay was performed using the N-acetylated and C-amidated hexapeptide AcPHF6 (Ac-VQIVYK-NH2), derived from the ^306VQIVYK^311 sequence found in the native […]. This region of the tau protein is involved in fibril aggregation processes and is commonly used as a model for screening tau aggregation inhibitors.
# In brief, AcPHF6 peptide was dissolved in 50 mM phosphate buffer (pH 7.4) at a concentration of 1 mM and vortexed to obtain a homogeneous solution. For aggregation inhibition experiments, 100 μM AcPHF6 peptide was mixed with compounds 6 and incubated at 37 °C for 4 days. The degree of AcPHF6 aggregation was determined using Thioflavin-T fluorescence analyses.
# Briefly, the screen of the styrylquinolines was performed based on Thioflavin T fluorescence. All assays were done on flat black 96-well plates. […] Immediately before the experiment, 1 μM heparin was added to initiate AcPHF6 aggregation. AcPHF6 alone in buffer reaction served as a control for the screen. Fluorescence values were taken at 24 h intervals for 72 h, at 37 °C and in replicates, using a microplate reader. […] All assays were performed at least twice to ensure reproducibility.
# Aβ1–42 peptide = target: T5, Aβ1–42 peptide (Homo sapiens, UniProt P05067); test: Aβ1–42 aggregation inhibition, Thioflavin T fluorescence; format: biochemical; conditions: 0.5 μM compound; Figure 11
# T5 construct: amyloid β protein fragment 1–42 (MW = 4514.04); purchased Merck-Sigma-Aldrich
# T5 sequence (P05067 672-713 limits assumed): as the sequence (P05067 672-713 limits assumed) above
# Protocol: A 0.5 mg/mL solution of Aβ1–42 peptide in 10% aqueous ammonium hydroxide was sonicated for 30 min to achieve monomerization. Solvent evaporation in a SpeedVac afforded a thin film that was dissolved in 60 mM NaOH, adjusting its concentration to 20 μM, as a stock solution. For aggregation inhibition experiments, 2 μM Aβ1–42 peptide was mixed with the styrylquinolines 6 and incubated for 4 days at 37 °C. The degree of Aβ aggregation was determined using Thioflavin-T fluorescence analysis.
# All assays were done on flat black 96-well plates. […] Peptide Aβ1–42 alone in buffer reaction served as a control for the screen. Fluorescence values were measured at 37 °C in replicates using a microplate reader, with the measurement taken at 24 h intervals for 72 h. […] All assays were performed at least twice to ensure reproducibility.
# Aβ42 = tested on: Aβ42; parameters: method as in PMID 24900645; conditions: ThT-based fluorometric assay; cited from earlier work
# β-amyloid protein = conditions: read-out: ThT-β-amyloid protein dissociation constant Kd, cited from earlier work
# HEK293-Tau3R cells = test: Cell viability, MTT assay; format: cell-based, human; conditions: 10 to 50 nM for 24 h
# Protocol: Cells were cultured in DMEM medium supplemented with 10% fetal bovine serum, 1 mM pyruvate, 2 mM glutamine and 0.2 mg/mL of the antibiotic zeocin. Cultures were maintained at 37 °C in a humidified atmosphere containing 5% CO2.
# HEK293-Tau3R cells were seeded into 96-well polystyrene plates at a density of 20,000 cells per well and incubated at 37 °C for 24 h to allow cell adhesion. […] Cell viability was assessed by measuring metabolic activity through the reduction of MTT (3-(4,5-dimethylthiazol-2-yl)-2,5-diphenyltetrazolium bromide) to insoluble formazan. Absorbance values were measured at 550 nm using a microplate reader.
# [7] = target: T3, neurofibrillary tangles (phosphorylated tau); parameters: method as in PMID 16914838; conditions: brain samples from AD patients; cited from earlier work
compound,measurement,setting,value
"CN(C)c1ccc(/C=C/c2ccc3cc(C=C(C#N)C#N)ccc3n2)cc1 [6a, (E)-2-((2-(4-(Dimethylamino)styryl)quinolin-6-yl)methylene)malononitrile]",Kd,[1],2.43 ± 0.32 µM
"CCN(CC)c1ccc(/C=C/c2ccc3cc(C=C(C#N)C#N)ccc3n2)cc1 [6b, (E)-2-((2-(4-(Diethylamino)styryl)quinolin-6-yl)methylene)malononitrile]",Labeling of amyloid-beta deposits,amyloid-beta plaques [2],specific binding to β-sheet amyloid structures
same,Labeling of neurofibrillary tangles,[3],did not label neurofibrillary tangles
same,Kd,[1],7.93 ± 0.63 µM
same,Caspase-3 activation induced by okadaic acid,[4],significantly reduced
same,Labeling of amyloid-beta plaques,amyloid-beta plaques [5],specifically labeled amyloid-beta plaques
"N#CC(C#N)=Cc1ccc2nc(/C=C/c3ccc(N4CCCCC4)cc3)ccc2c1 [6c, (E)-2-((2-(4-(Piperidin-1-yl)styryl)quinolin-6-yl)methylene)malononitrile]",Labeling of neurofibrillary tangles,[3],did not label neurofibrillary tangles
same,Kd,[1],8.19 ± 0.61 µM
same,Labeling of amyloid-beta plaques,amyloid-beta plaques [5],specifically labeled amyloid-beta plaques
"N#CC(C#N)=Cc1ccc2nc(/C=C/c3ccc(N4CCOCC4)cc3)ccc2c1 [6d, (E)-2-((2-(4-Morpholinostyryl)quinolin-6-yl)methylene)malononitrile]",Kd,[1],6.6 ± 0.79 µM
same,Caspase-3 activation induced by okadaic acid,[4],significantly reduced
"CC(=O)OCCN(CCOC(C)=O)c1ccc(/C=C/c2ccc3cc(C=C(C#N)C#N)ccc3n2)cc1 [6e, (E)-((4-(2-(6-(2,2-Dicyanovinyl)quinolin-2-yl)vinyl)phenyl)azanediyl)bis(ethane-2,1-diyl) diacetate]","AcPHF6 aggregation inhibition, ranking",[6],best result
same,Kd,[1],10.2 ± 1.53 µM
same,Caspase-3 activation induced by okadaic acid,[4],significantly reduced
same,Decrease of caspase-3 activity compared to cells treated with okadaic acid alone,[4],very similar results
same,"Aβ1–42 aggregation inhibition, ranking",Aβ1–42 peptide,most active compound
Cc1ccc2nc(/C=C/c3ccc(N)cc3)ccc2c1 [A],Inhibition of Aβ42 aggregation,Aβ42,moderate fibrillization inhibitor and amyloid binder
"Cc1ccc2c(c1)sc(-c1ccc(N(C)C)cc1)[n+]2C [ThT, Thioflavin T]",Kd,β-amyloid protein; ref 57,0.8 µM
same,Kd,β-amyloid protein; ref 58,2.56 µM
same,Kd,β-amyloid protein; ref 59,30.4 µM
same,Kd,β-amyloid protein; ref 60,46 µM
"C=C1[C@@H](O)[C@@H]2O[C@]3(CC[C@H](/C=C/[C@@H](C)[C@@H]4CC(C)=C[C@@]5(O[C@H](C[C@@](C)(O)C(=O)O)CC[C@H]5O)O4)O3)CC[C@H]2O[C@@H]1[C@@H](O)C[C@H](C)[C@H]1O[C@@]2(CCCCO2)CC[C@H]1C [okadaic acid, reference compound]",Concentration from which caspase 3 activity began to rise,[4]; okadaic acid 10–50 nM,≥ 25 nM
same,Concentrations at which a marked decline in cell viability was observed,HEK293-Tau3R cells,above 30 nM
(E)-2-((2-(2-(4-(Dimethylamino)naphthalen-1-yl)vinyl)quinolin-6-yl)-methylene)malononitrile [6g],Enhancement of fluorescence emission in the presence of beta-amyloid protein fibrils,"[1]; excitation wavelength characteristic of each compound, Figure 6",greater difficulty in binding to the beta sheet structure of the protein
same,Caspase-3 activation induced by okadaic acid,[4],significantly reduced
same,Decrease of caspase-3 activity compared to cells treated with okadaic acid alone,[4],more than 50%
Thioflavin S,Binding to beta-sheet structures and phosphorylated tau,[7],bind both beta-sheet structures and phosphorylated tau
